Assay results published in patent publication US8557823B2, “Family of PFKFB3 inhibitors with anti-neoplastic activities” (Advanced Cancer Therapeutics, LLC, priority 2007, dated 2013).
Converted amounts (≈) assume the structure as drawn.

How the values were obtained:
Jurkat = experiment: Cancer cell proliferation, Alamar Blue assay 72 hours, Jurkat; format: cell-based; conditions: Homo sapiens, Jurkat, 72 h
Protocol: (§1) The ability of the compounds described herein to kill or inhibit the proliferation of cancer cells was measured using either the MTT assay, the Alamar Blue assay, or the Cell Titer Glow® assay using 48 or 72 hours exposure. […] The procedures are briefly described below. Cells of the desired tumor cell line were plated at 2×10^5 cells/ml in 96 well plates. Twice the indicated concentrations of the compounds of the invention were added to cells the following day in an equal volume of media. 72 hours later, cells were lysed and subjected to ATP determination using the CellTiter Glo-Luminescent Cell Viability Assay kit (Promega, Madison, Wis.). Experiments were done in triplicate. When using the MTT assay or the Alamar blue assay, the experimental conditions are essentially similar; at the end of the incubation period, 20 microl of the MTT solution is added per well and the samples are incubated for an additional four hours, rinsed and the absorbance at 570 nm measured. Results for the inhibition of cells proliferation are reported as IC50 as commonly done (the concentration leading to a 50% inhibition of proliferation of the cell population) and are listed in the Tables below. Table 4 lists the IC50 for the compounds of the invention in several cell lines including Jurkat, Calu-6, NCI-H82, U937, or NCI-H1437 cancer cell lines. Table 5 lists the IC50 of PFK-070 in a panel of 10 cell lines.

U937 = experiment: Cancer cell proliferation, Alamar Blue assay 72 hours, U937; format: cell-based; conditions: Homo sapiens, U-937
Protocol: as §1

NCI-H82 = experiment: Cancer cell proliferation, Alamar Blue assay 72 hours, NCI-H82; format: cell-based; conditions: Homo sapiens
Protocol: as §1

Calu-6 = experiment: Cancer cell proliferation, Alamar Blue assay 72 hours, Calu-6; format: cell-based; conditions: Homo sapiens
Protocol: as §1

NCI-H1437 = experiment: Cancer cell proliferation, Alamar Blue assay 72 hours, NCI-H1437; format: cell-based; conditions: Homo sapiens
Protocol: as §1

H22 = experiment: MTT assay 48 hours, H22; format: cell-based; conditions: Mus musculus
Protocol: as §1

CT26 = experiment: MTT assay 48 hours, CT26; format: cell-based, murine; conditions: Mus musculus
Protocol: as §1

U87MG = experiment: MTT assay 48 hours, U87MG; format: cell-based; conditions: Homo sapiens, U-87 MG
Protocol: as §1

SK-N-SH = experiment: MTT assay 48 hours, SK-N-SH; format: cell-based; conditions: Homo sapiens
Protocol: as §1

LnCap = experiment: MTT assay 48 hours, LnCap; format: cell-based; conditions: Homo sapiens
Protocol: as §1

A549 = experiment: MTT assay 48 hours, A549; format: cell-based; conditions: Homo sapiens
Protocol: as §1

MiaPaca = experiment: MTT assay 48 hours, MiaPaca; format: cell-based; conditions: Homo sapiens, MIA PaCa-2
Protocol: as §1

BX-PC-3 = experiment: MTT assay 48 hours, BX-PC-3; format: cell-based; conditions: Homo sapiens, BXPC-3, BX-PC-3, MTT assay
Protocol: as §1

BT474 = experiment: MTT assay 48 hours, BT474; format: cell-based; conditions: Homo sapiens, BT-474
Protocol: as §1

SK-BR-3 = experiment: MTT assay 48 hours, SK-BR-3; format: cell-based; conditions: Homo sapiens, SK-BR-3, MTT assay
Protocol: as §1

[1] = Microsomal stability in human liver microsomes; format: in vitro ADME; conditions: 0 min
Protocol: Microsomal stability in vitro in different biologic media (liver microsomes, S9 fraction, hepatocytes) and species is ascertained to evaluate the rate at which a compound undergoes metabolism in the experimental in vitro conditions. […] Experimental conditions are briefly described here: the stability in human liver microsomes of several compounds was done over […] at 37° C. using pooled mixed gender human liver microsomes. These liver microsomes were prepared at 1.0 mg/ml of microsomal protein in a 100 mM potassium phosphate pH 7.4 buffer with 1 mM NADPH. The media was incubated at 37° C. with the compound in solution in DMSO. The concentration of the compound was followed by LC/MS-MS as a function of time. […] Testosterone was used as a positive control. The same experiment was performed with mouse, rat or dog liver microsomes instead of human liver microsomes.

[2] = Solubility in dosing solution Cre:EtOH:Saline; format: physicochemical; conditions: Cremophor:EtOH:Saline 5:5:90, aqueous with cosolvent or surfactant or cyclodextrin, kinetic from dmso stock; 5:5:90 Cremophor:EtOH:Saline, after 24 hours at room temperature
From the text: Chemical properties of the compounds of the invention were investigated, mainly the solubility in several solvents and pharmaceutically accepted excipients or dosing solutions and the stability of these solutions. […] The increase in solubility when comparing the effect of chemical substituents is unpredictable and surprising if one compares the solubility values of PFK-070 to PFK-091 and PFK-070 to PFK-141 and 145 in a dosing solution that could be used to treat cancer patients (See Table 8A below). Briefly, selected compounds of the invention are dissolved in a small volume of the solvents/excipients of interest (Cremophor, or Cremophor:etoh or Tween80:etoh) at room temperature and diluted 1:9 in saline and left at room temperature for over 8 or 24 hours. Both the physical (absence of a precipitate) and the chemical stability (less than 5% degradation) of the solutions are measured (observation and HPLC after filtration).

Jurkat cells = experiment: Inhibition of 2-deoxyglucose uptake, Example 14; format: cell-based; conditions: Homo sapiens, 3 hours
Protocol: Inhibition of PFKFB3 results in inhibiting glycolysis. Several feedback or feedforward activation and inhibition mechanisms exist so that, by a feedback mechanism, inhibiting the activity of PFKFB3 might inhibit glucose uptake by cells. An assay was developed to determine if there was inhibition of glucose uptake following exposure to the compounds on the invention. Briefly, Jurkat cells were plated at 1×10^5/mL in RPMI 1640 supplemented with 10% fetal bovine serum and 50 μg/mL gentamicin sulfate. Cells were immediately treated with vehicle or 0.5 μmol/L of the compound of the invention for 3 hours and subsequently placed in glucose-free RPMI 1640 for 30 min. ^14C-2-deoxyglucose (0.25 μCi/mL; Perkin Elmer) was added for an additional 60 min and cells were then washed three times with ice-cold RPMI 1640 containing no glucose. Cell lysates were collected in 500 μL of 0.1% SDS, and scintillation counts (counts/min) were measured on 400 μL of lysate. Counts were normalized to protein concentration.

K562 leukemia cells = experiment: In vitro growth inhibition, K562; format: cell-based, human; conditions: 1, 3, 10, 33 μM
Protocol: (§2) The K562, HL-60, MDA-MB231, and melanoma (CRL-11174) human cancer cell lines were purchased from ATCC (American Tissue Type Culture Collection, Manassas, Va., United States of America). HeLa, A549, Lewis Lung Carcinoma, MDA-MB231, and melanoma cells were grown in Dulbecco's Modified Eagle Medium (DMEM) (Hyclone, Logan, Utah, United States of America) supplemented with 10% fetal bovine serum (Hyclone, Logan, Utah, United States of America) and 50 μg/mL gentamicin sulfate (Invitrogen, Carlsbad, Calif., United States of America). The HL-60, K562, and Jurkat cell lines were grown in RPMI-1640 medium (Hyclone, Logan, Utah, United States of America) supplemented with 10% fetal bovine serum and 50 μg/mL gentamicin sulfate. […]
(§3) Cells were collected 48 hours post-treatment, and cell number and viability were determined by trypan blue exclusion. […]

HL-60 leukemia cells = experiment: In vitro growth inhibition, HL-60; format: cell-based, human; conditions: 1, 3, 10, 33 μM
Protocol: as §2, §3

PFKFB3 = PFKFB3 (Homo sapiens, UniProt Q16875); experiment: PFKFB3 enzyme-coupled kinetics assay (pyruvate kinase/lactate dehydrogenase, NADH consumption); conditions: 150 μM
Protocol: PFKFB3 activity was measured by an enzyme-coupled kinetics assay incorporating pyruvate kinase and lactate dehydrogenase as previously described. […] The assay measures NADH consumption spectrophotometrically as a loss of absorption at 340 nm with stoichiometry of 1 mol ATP: 1 mol NADH consumed. Assays were carried out in 96 well plates at 37° in 200 μL final volume containing 1XPFKFB3 reaction buffer (100 mM Tris-HCl, 100 μM EDTA, 5 mM KH2PO4; pH=7.4), 420 μM phophoenolpyruvate (PEP), 5 mM ATP, 400 μM NADH, 613 units of pyruvate kinase (PK), 1092 units of lactate dehydrogenase (LDH), increasing concentrations of fructose-6-phosphate (40-400 μM), and 15 μg of purified PFKFB3. […] Assays were measured using a BioTek POWERWAVE™ plate reader (BioTek Instruments, Inc., Winooski, Vt., United States of America) in kinetics mode over 15 minute periods to determine kinetic rate of PFKFB3. The enzyme kinetics module for SigmaPlot® 9.0 (SYSTAT Software, Inc., San Jose, Calif., United States of America) was used to calculate the kinetic parameters for PFKFB3 and 1 inhibition (Vmax, Km, and Ki). The Vmax is expressed in specific activity of PFKFB3 as nmol F6P×min^−1×mg^−1. […] The data represented are the mean±STD from triplicate measurements from two independent experiments.

glycolysis = conditions: cited from earlier work

Sequence of PFKFB3 (Q16875 whole entry): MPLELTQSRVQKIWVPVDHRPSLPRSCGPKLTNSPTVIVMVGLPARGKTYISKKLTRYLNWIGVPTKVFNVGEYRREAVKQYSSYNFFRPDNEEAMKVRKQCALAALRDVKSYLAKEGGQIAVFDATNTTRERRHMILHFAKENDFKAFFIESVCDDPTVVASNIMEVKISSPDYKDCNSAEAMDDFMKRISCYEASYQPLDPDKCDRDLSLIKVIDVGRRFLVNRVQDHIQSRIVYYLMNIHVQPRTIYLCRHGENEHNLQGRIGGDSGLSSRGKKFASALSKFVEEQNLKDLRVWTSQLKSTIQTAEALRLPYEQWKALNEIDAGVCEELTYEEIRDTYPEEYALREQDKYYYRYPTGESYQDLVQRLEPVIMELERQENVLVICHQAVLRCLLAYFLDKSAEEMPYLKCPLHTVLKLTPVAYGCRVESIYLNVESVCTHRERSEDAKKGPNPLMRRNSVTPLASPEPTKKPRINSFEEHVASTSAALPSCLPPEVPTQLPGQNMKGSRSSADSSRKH

| IC50 (Jurkat) [µM] | IC50 (U937) [nM] | IC50 (NCI-H82) [µM] | IC50 (Calu-6) [µM] | IC50 (NCI-H1437) [µM] | Mean metabolized (%) [1] [%] | solubility at 24 h [2] [µg/mL] | Structure (SMILES) | inhibition at 0.5 µM (Jurkat cells) [%] | further results |
| --- | --- | --- | --- | --- | --- | --- | --- | --- | --- |
| 6.4 | 2500 | 4 | 3.3 | – | – | – | O=C(/C=C/c1ccc2ccccc2n1)c1ccccc1 [ACT-PFK-076, 1-Phenyl-3-quinolin-2-yl-propenone] | 27 | – |
| 0.6 | 400 | 0.7 | 0.2 | 4.2 | 0 | 200 (≈ 662 µM) | NC(=O)c1ccc(C(=O)/C=C/c2ccc3ccccc3n2)cc1 [ACT-PFK-091, 4-(3-Quinolin-2-yl-acryloyl)-benzamide] | 11 | – |

More lines, now with the values behind:

| Structure (SMILES) | IC50 (Jurkat) [µM] | IC50 (U937) [nM] | IC50 (NCI-H82) [µM] | IC50 (Calu-6) [µM] | IC50 (NCI-H1437) [µM] | Mean metabolized (%) [1] [%] | solubility at 24 h [2] [µg/mL] | inhibition at 0.5 µM (Jurkat cells) [%] | further results |
| --- | --- | --- | --- | --- | --- | --- | --- | --- | --- |
| O=C(/C=C/c1ccc2cccc(O)c2n1)c1ccncc1 [ACT-PFK-070, 3-(8-Hydroxy-quinolin-2-yl)-1-pyridin-4-yl-propenone] | 1.3 | 3600 | 4 | 7.4 | 29.3 | 0 | 100 (≈ 362 µM) | 45 | IC50 (H22): 3.95 µM; IC50 (CT26): 2060 nM; IC50 (U87MG): 1680 nM; IC50 (SK-N-SH): 1460 nM; IC50 (LnCap): 1280 nM; IC50 (A549): 2680 nM; IC50 (MiaPaca): 275 nM; IC50 (BX-PC-3): 1180 nM; IC50 (BT474): 952 nM; IC50 (SK-BR-3): 1600 nM |
| O=C(/C=C/c1ccc2ccccc2n1)c1ccccn1 [ACT-PFK-085, 1-Pyridin-2-yl-3-quinolin-2-yl-propenone] | 4.9 | 2900 | 2.7 | 6.9 | – | – | – | 31 | – |
| O=C(/C=C/c1ccc(Cl)cc1)c1cccnc1 [Compound 2, 3-(4-chlorophenyl)-1-(3-pyridinyl)-2-propen-1-one] | – | – | – | – | – | – | – | – | cellular toxicity (K562 leukemia cells): dose-dependent cellular toxicity; cellular toxicity (HL-60 leukemia cells): dose-dependent cellular toxicity; kinetic rate of PFKFB3 reduced compared to vehicle (EtOH) (PFKFB3): 39.8%; kinetic rate of recombinant PFKFB3 as % of that with vehicle (EtOH) (PFKFB3): 39.8% |
| O=CC[C@@H](O)[C@H](O)[C@H](O)CO [Compound 2-DG, 2-deoxyglucose] | – | – | – | – | – | – | – | – | effective concentration of other inhibitors of glycolysis (glycolysis): low mM |
